The source of these data is patent publication US20230091047A1 (priority 2019, published 2023).

A short description of one series: in vitro. Format: cell-based. The note with it: human, HepG2 or HepG2.117 cells, ATPlite, 3-days incubation (not marked with *), mean value. An outline of the steps: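 Luminescent ATP quantitation served as the viability endpoint following a 3- or 4-day incubation with test compounds.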
For orientation: In ATP-based viability assays light output follows the ATP content of the culture.

In series [1] the test system is HBV (HepG2.117 cell line, inducibly HBV producing). Kind of series: Anti-HBV activity: intracellular HBV DNA by real-time PCR in HepG2.117 cells after 3 days of treatment. Format: cell-based, hepatitis B virus. The note with it: Hepatitis B virus, HepG2.117, 72 h, HepG2.117 cells, intracellular HBV DNA by real-time PCR, 3 days of treatment, mean value; read-out: EC50 (μM, mean value). An outline of the steps: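 HepG2.117 cells replicate HBV under Tet-off control, without doxycycline. After induction of replication, cells were treated with serially diluted compound for 3 days, and intracellular HBV DNA was then quantified by real-time PCR with an HBV-specific primer set and probe.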

What is called CC50 is the concentration that lowers cell viability or growth by half. A word on the EC50: it is the concentration giving half of the maximal effect. In the case of `CNC(=O)c1ccc(-n2c(N[C@@H](C)c3ccc(OC)c(OC)c3)nc3c(c2=O)C[C@@H](C)N(C(=O)c2ccc(Cl)c(Cl)c2)C3)cc1` (single isomer, unassigned) [Compound C415b], in the series “in vitro”, the CC50 at 3 days stood at 27.6 µM. In series [1], the half-maximal effective concentration (EC50) amounted to 0.12 µM.

Regarding `CNC(=O)c1ccc(-n2c(N[C@H](C)c3ccc(OC)c(F)c3)nc3c(c2=O)C[C@@H](C)N(C(=O)c2ccc(Cl)c(Cl)c2)C3)cc1` (single isomer, unassigned) [Compound C416a], in “in vitro”, the 50% cytotoxic concentration (CC50) at 3 days was over 50 µM. Further, the EC50 in series [1] was found to be 0.96 µM.

Consider `CNC(=O)c1ccc(-n2c(N[C@@H](C)c3ccc(OC)c(F)c3)nc3c(c2=O)C[C@@H](C)N(C(=O)c2ccc(Cl)c(Cl)c2)C3)cc1` (single isomer, unassigned) [Compound C416b], for which, in the series “in vitro”, the CC50 at 3 days worked out at 34.5 µM. For the same compound, the EC50 in series [1] was 0.06 µM.

For the compound `CNC(=O)c1ccc(-n2c(N[C@H](C)c3ccc(F)c(F)c3)nc3c(c2=O)C[C@@H](C)N(C(=O)c2ccc(Cl)c(Cl)c2)C3)cc1` (single isomer, unassigned) [Compound C417a], the CC50 at 3 days in “in vitro” was 41.8 µM. The concentration giving a half-maximal response (EC50) in series [1] was 1.22 µM.

For `CNC(=O)c1ccc(-n2c(N[C@@H](C)c3ccc(F)c(F)c3)nc3c(c2=O)C[C@@H](C)N(C(=O)c2ccc(Cl)c(Cl)c2)C3)cc1` (single isomer, unassigned) [Compound C417b], half-maximal cytotoxicity in the series “in vitro” (CC50 at 3 days) was put at 7.3 µM. Further, in series [1], the EC50 worked out at 0.06 µM.

In the case of `CNC(=O)c1ccc(-n2c(N[C@@H](c3ccc(OC)cc3)C(C)C)nc3c(c2=O)C[C@@H](C)N(C(=O)c2ccc(Cl)c(Cl)c2)C3)cc1` (single isomer, unassigned) [Compound C422a], the CC50 at 3 days in the series “in vitro” was 10.5 µM. For the same compound, the half-maximal effective concentration (EC50) in series [1] is 7.77 µM.

Consider `CNC(=O)c1ccc(-n2c(N[C@H](c3ccc(OC)cc3)C(C)C)nc3c(c2=O)C[C@@H](C)N(C(=O)c2ccc(Cl)c(Cl)c2)C3)cc1` (single isomer, unassigned) [Compound C422b], for which, in the series “in vitro”, the CC50 at 3 days amounted to 17.2 µM. For the same compound, the 50% effective concentration (EC50) in series [1] came to 0.28 µM.

For `CNC(=O)c1ccc(-n2c(N[C@H](C)c3cc(C)no3)nc3c(c2=O)C[C@@H](C)N(C(=O)c2ccc(Cl)c(Cl)c2)C3)cc1` (single isomer, unassigned) [Compound C433a], in “in vitro”, the cytotoxic concentration (CC50) at 3 days was over 50 µM. Further, the EC50 in series [1] turned out to be 1.89 µM.

`CNC(=O)c1ccc(-n2c(N[C@@H](C)c3cc(C)no3)nc3c(c2=O)C[C@@H](C)N(C(=O)c2ccc(Cl)c(Cl)c2)C3)cc1` (single isomer, unassigned) [Compound C433b] had a cytotoxic concentration (CC50) at 3 days in the series “in vitro” of over 50 µM. For the same compound, the EC50 in series [1] came to 0.73 µM.

In “in vitro”, `CNC(=O)c1ccc(-n2c(N[C@H](C)c3nccs3)nc3c(c2=O)C[C@@H](C)N(C(=O)c2ccc(Cl)c(Cl)c2)C3)cc1` (single isomer, unassigned) [Compound C434a] registered a 50% cytotoxic concentration (CC50) at 3 days of over 50 µM. Moreover, the EC50 in series [1] worked out at 0.99 µM.

Consider `CNC(=O)c1ccc(-n2c(N[C@@H](C)c3nccs3)nc3c(c2=O)C[C@@H](C)N(C(=O)c2ccc(Cl)c(Cl)c2)C3)cc1` (single isomer, unassigned) [Compound C434b], for which, in “in vitro”, the CC50 at 3 days was over 50 µM. Also, in series [1], the concentration giving a half-maximal response (EC50) was determined as 0.84 µM.

With `CNC(=O)c1ccc(-n2c(N[C@H](C)c3ccc(F)c(OC)c3)nc3c(c2=O)C[C@@H](C)N(C(=O)c2ccc(Cl)c(Cl)c2)C3)cc1` (single isomer, unassigned) [Compound C435a], in the series “in vitro”, half-maximal cytotoxicity (CC50 at 3 days) was put at 26.4 µM. The EC50 in series [1] was found to be 0.1 µM.

In “in vitro”, `CNC(=O)c1ccc(-n2c(N[C@@H](C)c3ccc(F)c(OC)c3)nc3c(c2=O)C[C@@H](C)N(C(=O)c2ccc(Cl)c(Cl)c2)C3)cc1` (single isomer, unassigned) [Compound C435b] showed a 50% cytotoxic concentration (CC50) at 3 days of 45.8 µM. Moreover, the EC50 in series [1] was found to be 1.29 µM.

In the case of `CNC(=O)c1ccc(-n2c(NC[C@H](C)c3cccc(OC)c3)nc3c(c2=O)C[C@@H](C)N(C(=O)c2ccc(Cl)c(Cl)c2)C3)cc1` (single isomer, unassigned) [Compound C436a], half-maximal cytotoxicity in the series “in vitro” (CC50 at 3 days) was put at 22.3 µM. The EC50 in series [1] was 0.99 µM.
